Experiments:
Experiment in all cases: relative viability (nuclei count vs DMSO), 5 days (fraction); higher = more cells survive
[1] = compound: CC1=CC=C(C=C1)C(=O)CN2C3=C(CCCC3)SC2=N [Pifithrin_alpha] + CC(=O)c1c(C)c2cnc(Nc3ccc(N4CCNCC4)cn3)nc2n(C2CCCC2)c1=O [Palbociclib] (partner 0.5 µM)
Method in brief: (§1)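 Dosing by pin tool came one day after lung cancer cell lines were seeded in 1536-well plates, using either one drug or a fixed anchor-drug dose plus five library-drug doses (not always all listed) in √10 steps. After 5 days, nuclei were counted on 4× images. Relative viability is treated-well nuclei count divided by vehicle-well nuclei count, and values are medians of duplicate plates.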

Axitinib + Linsitinib = compound: CNC(=O)c1ccccc1Sc1ccc2c(/C=C/c3ccccn3)n[nH]c2c1 [Axitinib] + C[C@]1(O)C[C@@H](c2nc(-c3ccc4ccc(-c5ccccc5)nc4c3)c3c(N)nccn32)C1 [Linsitinib] (partner 1 µM)
Method in brief: as §1

[2] = compound: CC1=CC=C(C=C1)C(=O)CN2C3=C(CCCC3)SC2=N [Pifithrin_alpha] + CC(C)C[C@H](NC(=O)[C@H](Cc1ccccc1)NC(=O)c1cnccn1)B(O)O [Bortezomib] (partner 0.002 µM)
Method in brief: as §1

Bemcentinib + OSI-027 = compound: Nc1nc(Nc2ccc3c(c2)CC[C@@H](N2CCCC2)CC3)nn1-c1cc2c(nn1)-c1ccccc1CCC2 [Bemcentinib] + COc1cccc2cc(-c3nc([C@H]4CC[C@H](C(=O)O)CC4)n4ncnc(N)c34)[nH]c12 [OSI-027] (partner 0.5 µM)
Method in brief: as §1

Cell Line	relative viability ([1]; first compound 1 µM)	relative viability ([1]; first compound 3.162 µM)	relative viability ([1]; first compound 10 µM)	relative viability ([1]; first compound 31.62 µM)	relative viability ([1]; first compound 100 µM)	relative viability (Axitinib + Linsitinib; first compound 0.005 µM)	relative viability (Axitinib + Linsitinib; first compound 0.01581 µM)	relative viability (Axitinib + Linsitinib; first compound 0.05 µM)	relative viability (Axitinib + Linsitinib; first compound 0.1581 µM)	relative viability (Axitinib + Linsitinib; first compound 0.5 µM)	relative viability ([2]; first compound 1 µM)	relative viability ([2]; first compound 3.162 µM)	relative viability ([2]; first compound 10 µM)	relative viability ([2]; first compound 31.62 µM)	relative viability ([2]; first compound 100 µM)	relative viability (Bemcentinib + OSI-027; first compound 0.04 µM)	relative viability (Bemcentinib + OSI-027; first compound 0.1265 µM)	relative viability (Bemcentinib + OSI-027; first compound 0.4 µM)	relative viability (Bemcentinib + OSI-027; first compound 1.265 µM)	relative viability (Bemcentinib + OSI-027; first compound 4 µM)
NCI-H1651	0.534	0.513	0.513	0.569	0.514	1.08	0.895	0.914	0.964	1.23	0.857	0.929	0.916	0.88	1.02	0.771	0.811	0.738	0.741	0.74
NCI-H1666	0.642	0.68	0.591	0.612	0.646	0.926	0.917	0.786	0.8	0.912	0.635	0.472	0.465	0.404	0.28	0.82	0.991	0.883	0.885	0.923
NCI-H1734	0.38	0.362	0.33	0.313	0.355	1.05	0.829	0.977	0.903	1.04	1.1	0.928	0.899	0.7	0.817	0.643	0.66	0.552	0.583	0.591
NCI-H1755	0.433	0.437	0.441	0.424	0.443	1.04	0.963	0.99	1.02	1.03	0.894	0.907	0.866	0.862	0.971	0.79	0.711	0.758	0.793	0.732
NCI-H1792		0.589	0.637	0.535	0.669	0.575	0.629	0.527	0.557	0.504	0.719	0.847	0.666	0.582	0.795	0.85	0.884	0.881	1	0.768
NCI-H1915	0.532	0.517	0.522		0.452	1.03	1.12	1.09	1.13	1.13	0.947	1.15	0.904		1.35	0.625	0.661	0.635	0.59	0.696
NCI-H1975	0.573	0.435	0.32	0.302	0.339	1.17	1.1	1.09	0.988	1.18	0.34	0.306	0.305	0.335	0.271	0.719	0.82	0.737	0.795	0.772
NCI-H1993	0.585	0.542	0.506	0.54	0.46	0.725	0.745	0.773	0.79	0.826		0.815	0.861	0.887	0.892	0.592	0.534	0.557	0.548	0.506
NCI-H2009	0.194	0.219	0.172	0.128	0.174	1.23	1.18	1.21	1.28	1.36	0.551	0.907	0.942	0.444	0.798	0.626	0.743	0.684	0.709	0.665
NCI-H2023	0.388	0.327	0.365	0.227	0.184	0.687	0.635	0.698	0.636	0.736	0.724	0.86	0.856	0.408	0.669	0.323	0.511	0.462	0.419	0.445
NCI-H2085	0.499	0.432	0.449	0.446	0.444	1.02	1	0.845	0.794	1	0.993	1.07	1.01	0.878	1	0.722	0.945	0.764	0.686	0.752
NCI-H2087	0.219	0.198	0.245	0.195	0.207	1.06	0.905	0.96	0.699	0.968	0.733	0.768	0.941	0.489	1.02	0.495	0.687	0.589	0.544	0.571
NCI-H2126	0.333	0.381	0.356	0.302	0.373	0.696	0.724	0.728	0.667	0.676	1.11	1.09	0.925	0.896	0.94	0.679	0.692	0.756	0.688	0.683
NCI-H2228	0.833	0.75	0.659	0.453	0.853	0.674	0.625	0.633	0.735	0.58	0.919	1.03	0.926	0.86	0.722	0.186	0.599	0.745	0.575	0.775
NCI-H2347	0.468	0.415	0.442	0.386	0.365	1.07	0.929	1.08	1.07	0.914	0.695		0.855	0.814	0.874	0.413	0.454	0.386	0.429	0.422
NCI-H2405		0.508	0.511	0.433	0.503	0.945	1	1.07	1	1.11	0.869	0.935	0.925	0.857	0.953	0.665	0.64	0.62	0.707	0.692

Reference: the supplement of paper PMC10307832
